These results are taken from ChEMBL document CHEMBL5465560, “Selectivity Literature for EUbOPEN Chemogenomic Library” (2024).

SMILES strings stand for the structures.

Experiment [1] addresses Mitogen-activated protein kinase kinase kinase 11 (Homo sapiens) (UniProt Q16584). Nature of the experiment: Selectivity interaction (LanthaScreen Eu Kinase Binding Assay) EUB0001632a MAP3K11. The following applies: at 10 µM.
In experiment [2] the target is T1, Aurora kinase C (Homo sapiens) (UniProt Q9UQB9).
T1 sequence (whole entry): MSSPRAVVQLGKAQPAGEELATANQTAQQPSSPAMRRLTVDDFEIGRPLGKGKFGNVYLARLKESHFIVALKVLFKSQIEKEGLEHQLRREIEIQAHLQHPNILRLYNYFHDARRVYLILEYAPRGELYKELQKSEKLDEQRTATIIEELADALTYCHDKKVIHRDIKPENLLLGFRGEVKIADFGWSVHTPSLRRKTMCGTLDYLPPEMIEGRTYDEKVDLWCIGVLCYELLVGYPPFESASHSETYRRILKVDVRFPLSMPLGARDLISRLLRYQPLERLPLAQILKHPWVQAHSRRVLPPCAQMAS
Nature of the experiment: Selectivity interaction (KinomeScan (DiscoverX)) EUB0000666a AURKC. Conditions: at 10 µM.

Experiment [3] addresses MAP kinase-activated protein kinase 3 (Homo sapiens) (UniProt Q16644). Nature of the experiment: Selectivity interaction (SelectScreen profiling (Invitrogen)) EUB0000607a MAPKAPK3. The following applies: at 2 µM.
Experiment [4] addresses Cyclin-dependent kinase 7 (Homo sapiens, UniProt P50613). Nature of the experiment: Selectivity interaction (KinomeScan (DiscoverX)) EUB0001550a CDK7. The following applies: at 1 µM.
Experiment [5] concerns the target T2, Dual specificity mitogen-activated protein kinase kinase 5 (Homo sapiens) (UniProt Q13163).
T2 sequence (whole entry): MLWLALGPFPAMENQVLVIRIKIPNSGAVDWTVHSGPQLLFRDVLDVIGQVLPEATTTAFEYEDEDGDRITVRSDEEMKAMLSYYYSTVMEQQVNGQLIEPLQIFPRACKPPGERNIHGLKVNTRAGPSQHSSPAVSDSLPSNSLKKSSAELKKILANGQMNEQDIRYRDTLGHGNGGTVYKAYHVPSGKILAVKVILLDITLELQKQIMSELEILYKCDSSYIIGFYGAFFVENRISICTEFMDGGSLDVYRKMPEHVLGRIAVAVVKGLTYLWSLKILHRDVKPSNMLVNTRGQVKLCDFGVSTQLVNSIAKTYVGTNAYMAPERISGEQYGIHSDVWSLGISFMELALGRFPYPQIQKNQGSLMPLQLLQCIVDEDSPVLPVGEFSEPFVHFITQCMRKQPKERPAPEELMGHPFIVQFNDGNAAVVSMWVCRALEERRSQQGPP
Conditions: at 10 µM.

In experiment [6] the target is T3, Dual specificity mitogen-activated protein kinase kinase 7 (Homo sapiens) (UniProt O14733).
T3 sequence (whole entry): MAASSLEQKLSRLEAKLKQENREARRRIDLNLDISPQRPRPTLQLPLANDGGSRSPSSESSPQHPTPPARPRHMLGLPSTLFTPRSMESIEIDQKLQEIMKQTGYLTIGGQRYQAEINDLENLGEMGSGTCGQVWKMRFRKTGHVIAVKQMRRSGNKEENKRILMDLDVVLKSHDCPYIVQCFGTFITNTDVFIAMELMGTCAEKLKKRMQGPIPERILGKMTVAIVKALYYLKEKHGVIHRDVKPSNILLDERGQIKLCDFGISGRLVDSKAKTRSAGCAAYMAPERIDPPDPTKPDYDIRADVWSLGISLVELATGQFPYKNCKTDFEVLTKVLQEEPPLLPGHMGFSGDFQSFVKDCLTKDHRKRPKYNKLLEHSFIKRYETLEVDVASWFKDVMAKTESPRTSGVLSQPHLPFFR
Nature of the experiment: Selectivity interaction (ActivX KiNativ screen (kinase selectivity in THP-1 cell lysates)) EUB0000639a MAP2K7. The class given is subcellular. The following applies: lysate.

For experiment [7], the target named is Serine/threonine-protein kinase PLK1 (Homo sapiens, UniProt P53350). Nature of the experiment: Selectivity interaction (KinomeScan (DiscoverX)) EUB0000045b PLK1.
Experiment [8] has as its target RAF proto-oncogene serine/threonine-protein kinase (Homo sapiens) (UniProt P04049). Nature of the experiment: Selectivity interaction (Ambit KINOMEscan and KiNATiv profiling in Jurkat cells) EUB0000090b RAF1. It is filed as cell-based. Conditions: at 1 µM.
In experiment [9] the target is Serine/threonine-protein kinase PAK 6 (Homo sapiens) (UniProt Q9NQU5). Nature of the experiment: Selectivity interaction (KinomeScan (DiscoverX)) EUB0001049a PAK6. Conditions: at 1 µM.
A short description of experiment [10]: Selectivity interaction (KinomeScan (DiscoverX)) EUB0000655a PKNB. Conditions: at 10 µM.
The target of experiment [11] is Calcium/calmodulin-dependent protein kinase type II subunit beta (Homo sapiens) (UniProt Q13554). Nature of the experiment: Selectivity interaction (Kinase panel (DSF assay)) EUB0001558a CAMK2B.
For experiment [12], the target named is Serine/threonine-protein kinase PRP4 homolog (Homo sapiens) (UniProt Q13523). Nature of the experiment: Selectivity interaction (KinomeScan (DiscoverX)) EUB0000229b PRPF4B. Conditions: at 10 µM.
Chain of Serine/threonine-protein kinase PRP4 homolog (Homo sapiens) (Q13523 whole entry): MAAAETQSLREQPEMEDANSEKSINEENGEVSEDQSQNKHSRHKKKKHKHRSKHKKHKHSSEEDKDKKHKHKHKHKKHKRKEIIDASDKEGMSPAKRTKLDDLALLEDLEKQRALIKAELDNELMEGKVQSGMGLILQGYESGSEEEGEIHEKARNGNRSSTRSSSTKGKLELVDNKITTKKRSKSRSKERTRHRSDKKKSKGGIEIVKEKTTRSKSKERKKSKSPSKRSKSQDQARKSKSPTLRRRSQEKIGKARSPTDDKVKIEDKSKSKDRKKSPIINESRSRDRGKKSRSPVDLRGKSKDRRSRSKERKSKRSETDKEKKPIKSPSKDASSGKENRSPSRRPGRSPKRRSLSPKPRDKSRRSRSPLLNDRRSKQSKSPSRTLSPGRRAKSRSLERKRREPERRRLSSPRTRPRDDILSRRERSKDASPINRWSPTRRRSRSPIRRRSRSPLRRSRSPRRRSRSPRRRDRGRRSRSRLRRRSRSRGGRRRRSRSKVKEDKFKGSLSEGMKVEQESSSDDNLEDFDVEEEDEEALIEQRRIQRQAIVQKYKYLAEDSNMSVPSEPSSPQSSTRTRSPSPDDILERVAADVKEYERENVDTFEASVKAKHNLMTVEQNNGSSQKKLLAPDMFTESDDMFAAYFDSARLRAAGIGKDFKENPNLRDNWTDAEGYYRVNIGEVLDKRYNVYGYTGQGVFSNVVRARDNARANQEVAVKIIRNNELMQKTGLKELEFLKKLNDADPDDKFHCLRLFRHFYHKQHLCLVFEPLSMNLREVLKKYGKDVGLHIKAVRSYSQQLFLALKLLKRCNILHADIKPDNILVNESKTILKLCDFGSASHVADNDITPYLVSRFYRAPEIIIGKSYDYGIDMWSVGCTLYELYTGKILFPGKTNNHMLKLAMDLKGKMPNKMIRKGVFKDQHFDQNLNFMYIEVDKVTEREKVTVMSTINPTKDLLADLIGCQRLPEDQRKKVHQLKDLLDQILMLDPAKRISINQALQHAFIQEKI

Chain of Serine/threonine-protein kinase PLK1 (P53350 whole entry): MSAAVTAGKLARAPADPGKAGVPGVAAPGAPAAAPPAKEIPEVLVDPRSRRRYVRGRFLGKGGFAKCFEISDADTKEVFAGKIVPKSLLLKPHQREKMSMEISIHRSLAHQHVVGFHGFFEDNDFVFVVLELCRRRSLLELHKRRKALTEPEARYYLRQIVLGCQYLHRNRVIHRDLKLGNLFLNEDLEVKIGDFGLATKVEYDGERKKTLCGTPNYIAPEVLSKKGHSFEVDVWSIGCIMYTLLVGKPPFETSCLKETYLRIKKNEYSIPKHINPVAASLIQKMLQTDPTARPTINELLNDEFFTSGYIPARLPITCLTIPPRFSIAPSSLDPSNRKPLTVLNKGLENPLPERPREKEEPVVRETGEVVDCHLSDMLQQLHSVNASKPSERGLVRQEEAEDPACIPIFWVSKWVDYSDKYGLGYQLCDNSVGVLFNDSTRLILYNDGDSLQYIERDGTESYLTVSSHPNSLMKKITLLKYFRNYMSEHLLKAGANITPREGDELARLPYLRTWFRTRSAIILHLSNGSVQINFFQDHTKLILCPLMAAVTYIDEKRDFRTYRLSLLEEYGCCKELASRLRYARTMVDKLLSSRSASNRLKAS
Chain of Cyclin-dependent kinase 7 (P50613 whole entry): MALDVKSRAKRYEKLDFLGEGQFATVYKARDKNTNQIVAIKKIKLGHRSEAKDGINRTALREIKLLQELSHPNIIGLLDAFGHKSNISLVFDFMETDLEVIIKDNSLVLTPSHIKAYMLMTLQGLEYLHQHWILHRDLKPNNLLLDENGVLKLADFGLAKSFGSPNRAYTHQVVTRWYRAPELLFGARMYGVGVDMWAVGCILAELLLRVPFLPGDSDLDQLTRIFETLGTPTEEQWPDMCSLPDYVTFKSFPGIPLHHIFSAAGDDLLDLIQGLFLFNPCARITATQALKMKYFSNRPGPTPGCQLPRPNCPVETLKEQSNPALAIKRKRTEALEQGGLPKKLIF
Chain of Serine/threonine-protein kinase PAK 6 (Homo sapiens) (Q9NQU5 whole entry, looked up): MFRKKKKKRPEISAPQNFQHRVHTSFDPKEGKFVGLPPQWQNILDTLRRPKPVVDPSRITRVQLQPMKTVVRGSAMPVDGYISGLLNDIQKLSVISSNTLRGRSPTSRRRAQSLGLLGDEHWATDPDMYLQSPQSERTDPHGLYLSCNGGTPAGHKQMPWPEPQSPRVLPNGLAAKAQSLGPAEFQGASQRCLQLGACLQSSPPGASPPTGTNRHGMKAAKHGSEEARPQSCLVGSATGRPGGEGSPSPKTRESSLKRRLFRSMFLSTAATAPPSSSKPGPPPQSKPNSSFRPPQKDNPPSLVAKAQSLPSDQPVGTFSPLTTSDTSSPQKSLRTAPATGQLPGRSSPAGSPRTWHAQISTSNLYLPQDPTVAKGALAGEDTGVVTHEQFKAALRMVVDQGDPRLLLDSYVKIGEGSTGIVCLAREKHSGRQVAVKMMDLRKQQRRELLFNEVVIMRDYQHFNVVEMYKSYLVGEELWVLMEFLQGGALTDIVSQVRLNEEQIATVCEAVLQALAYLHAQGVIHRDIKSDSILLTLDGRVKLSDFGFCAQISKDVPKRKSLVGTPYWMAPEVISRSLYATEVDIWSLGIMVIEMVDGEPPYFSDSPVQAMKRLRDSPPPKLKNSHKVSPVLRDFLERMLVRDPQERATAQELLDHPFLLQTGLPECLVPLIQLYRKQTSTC
Chain of Mitogen-activated protein kinase kinase kinase 11 (Homo sapiens) (Q16584 whole entry, looked up): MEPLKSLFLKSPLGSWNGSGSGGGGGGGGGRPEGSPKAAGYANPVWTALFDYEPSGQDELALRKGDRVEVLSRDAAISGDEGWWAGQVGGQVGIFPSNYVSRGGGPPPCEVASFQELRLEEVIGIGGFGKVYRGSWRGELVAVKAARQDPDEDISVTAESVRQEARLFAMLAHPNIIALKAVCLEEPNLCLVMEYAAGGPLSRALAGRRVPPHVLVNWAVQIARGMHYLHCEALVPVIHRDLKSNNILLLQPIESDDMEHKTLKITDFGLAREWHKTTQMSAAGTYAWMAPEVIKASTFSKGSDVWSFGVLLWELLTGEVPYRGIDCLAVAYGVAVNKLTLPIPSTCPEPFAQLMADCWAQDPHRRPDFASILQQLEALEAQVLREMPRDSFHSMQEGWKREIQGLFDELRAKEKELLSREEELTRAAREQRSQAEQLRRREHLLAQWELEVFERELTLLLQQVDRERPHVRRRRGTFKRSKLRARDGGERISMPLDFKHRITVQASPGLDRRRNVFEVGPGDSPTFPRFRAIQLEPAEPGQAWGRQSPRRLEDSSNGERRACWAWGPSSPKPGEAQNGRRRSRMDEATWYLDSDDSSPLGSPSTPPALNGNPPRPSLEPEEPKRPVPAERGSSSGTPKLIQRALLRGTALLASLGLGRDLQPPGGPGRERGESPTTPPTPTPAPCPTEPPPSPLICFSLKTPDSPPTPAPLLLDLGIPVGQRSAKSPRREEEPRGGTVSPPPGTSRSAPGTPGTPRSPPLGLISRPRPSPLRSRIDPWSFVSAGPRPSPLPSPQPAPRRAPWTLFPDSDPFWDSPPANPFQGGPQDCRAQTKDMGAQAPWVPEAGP
Chain of MAP kinase-activated protein kinase 3 (Homo sapiens) (Q16644 whole entry, looked up): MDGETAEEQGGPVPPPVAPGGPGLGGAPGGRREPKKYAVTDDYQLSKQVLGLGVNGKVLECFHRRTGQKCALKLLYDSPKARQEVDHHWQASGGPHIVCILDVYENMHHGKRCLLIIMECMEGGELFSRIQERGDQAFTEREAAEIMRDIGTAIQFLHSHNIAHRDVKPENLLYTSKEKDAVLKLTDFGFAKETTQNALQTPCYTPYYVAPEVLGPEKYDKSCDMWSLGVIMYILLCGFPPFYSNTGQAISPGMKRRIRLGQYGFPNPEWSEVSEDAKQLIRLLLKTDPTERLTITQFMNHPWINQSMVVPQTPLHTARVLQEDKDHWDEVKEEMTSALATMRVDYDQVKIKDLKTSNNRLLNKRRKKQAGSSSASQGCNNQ
Chain of RAF proto-oncogene serine/threonine-protein kinase (Homo sapiens) (P04049 whole entry): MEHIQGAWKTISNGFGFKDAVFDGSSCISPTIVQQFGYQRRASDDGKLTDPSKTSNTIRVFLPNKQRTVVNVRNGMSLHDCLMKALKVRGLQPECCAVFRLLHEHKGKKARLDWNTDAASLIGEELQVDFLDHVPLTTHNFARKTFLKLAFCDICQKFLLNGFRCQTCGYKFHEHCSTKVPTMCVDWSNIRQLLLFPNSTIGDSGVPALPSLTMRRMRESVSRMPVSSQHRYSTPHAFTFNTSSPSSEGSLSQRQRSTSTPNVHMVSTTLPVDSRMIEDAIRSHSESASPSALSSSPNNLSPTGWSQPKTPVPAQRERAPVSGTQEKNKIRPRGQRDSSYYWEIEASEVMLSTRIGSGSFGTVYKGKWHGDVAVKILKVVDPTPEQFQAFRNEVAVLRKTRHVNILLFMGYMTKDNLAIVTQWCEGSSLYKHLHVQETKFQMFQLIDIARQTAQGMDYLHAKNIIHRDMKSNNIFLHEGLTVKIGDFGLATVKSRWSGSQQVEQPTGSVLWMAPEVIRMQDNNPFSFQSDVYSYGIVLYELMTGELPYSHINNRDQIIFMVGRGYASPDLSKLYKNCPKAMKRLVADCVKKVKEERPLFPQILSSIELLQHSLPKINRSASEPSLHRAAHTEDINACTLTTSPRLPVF

In the case of `Cn1cc(-n2cnc3c(NCc4nc5cc(Cl)c(Cl)cc5[nH]4)nc(N4CCOCC4)nc32)cn1`, in [1], the % of inhibition was -0.811%.

`O=C(NOC[C@H](O)CO)c1ccc(F)c(F)c1Nc1ccc(I)cc1F` returned a % of control in experiment [2] of 45%.

On to `CNC(=O)Nc1ccc(-c2nc(N3CC4CCC(C3)O4)c3cnn(C4CCC5(CC4)OCCO5)c3n2)cc1`, for which the % of inhibition in experiment [3] worked out at 1%.

In experiment [4], `CN(C)CC#Cc1ccc2[nH]c3c(c2c1)-c1nc(N)ncc1CCC3` showed a % of control of 20%.

In experiment [5], `Cc1cc([C@@H](C)Nc2ccccc2C(=O)O)c2nc(N3CCOCC3)cc(=O)n2c1` [AZD-6482] returned a % of control of 100%.

With `CC[C@@H]1[C@H](F)C(=O)N[C@@H]1COc1nccc2cc(C(N)=O)c(OC)cc12` [ZIMLOVISERTIB], the % of inhibition in experiment [6] (at 0.01 µM) was 7.8%; in experiment [6] (at 0.04 µM), 0.6%; in experiment [6] (at 0.2 µM), 2.5%; in [6] (at 1 µM), 2.2%; in experiment [6] (at 5 µM), -7.1%.

`C=CC(=O)Nc1cc(-n2c(=O)ccc3cnc4ccc(-c5ccc(NS(C)(=O)=O)cc5)cc4c32)ccc1C`: the % of control in experiment [7] (at 1 µM) and in [7] (at 10 µM) was 100% each time.

In experiment [8], `CN(C)C/C=C/C(=O)Nc1ccc(C(=O)N2CCCC(Nc3ncc(Cl)c(-c4c[nH]c5ccccc45)n3)C2)cc1` (configuration not stated) gave a % of control of 91%.

Take `COc1cc(Nc2nc(C)cc(-c3cnn4nc(OC)ccc34)n2)cc(C(F)(F)F)c1`: the % of control in experiment [9] was determined as 82%.

In [10], `CN(C)CCOc1ccc(-c2nc(-c3ccncc3)c(-c3ccc4c(c3)CC/C4=N\O)[nH]2)cc1` gave a % of control of 65%.

Consider `CC(C)(O)[C@H](F)CN1Cc2cc(NC(=O)c3cnn4cccnc34)c(N3CCOCC3)cc2C1=O`, for which, in [11], the dTM worked out at 0.1 K.

`COc1cc(N(C)c2ccnc3ccc(C(F)(F)F)cc23)cc(OC)c1OC` returned a % binding in experiment [12] of 100%.
